Experimental findings from US20060148858A1, “1, 2-Azole derivatives with hypoglycemic and hypolipidemic activity” (priority 2002, published 2006) are described below.

One data set addresses T1, PPARδ-RXRα heterodimer (Homo sapiens, UniProt Q03181).
T1 construct: expressed in transfected cells; host or cells: COS-1
T1 sequence (Q03181 1-441): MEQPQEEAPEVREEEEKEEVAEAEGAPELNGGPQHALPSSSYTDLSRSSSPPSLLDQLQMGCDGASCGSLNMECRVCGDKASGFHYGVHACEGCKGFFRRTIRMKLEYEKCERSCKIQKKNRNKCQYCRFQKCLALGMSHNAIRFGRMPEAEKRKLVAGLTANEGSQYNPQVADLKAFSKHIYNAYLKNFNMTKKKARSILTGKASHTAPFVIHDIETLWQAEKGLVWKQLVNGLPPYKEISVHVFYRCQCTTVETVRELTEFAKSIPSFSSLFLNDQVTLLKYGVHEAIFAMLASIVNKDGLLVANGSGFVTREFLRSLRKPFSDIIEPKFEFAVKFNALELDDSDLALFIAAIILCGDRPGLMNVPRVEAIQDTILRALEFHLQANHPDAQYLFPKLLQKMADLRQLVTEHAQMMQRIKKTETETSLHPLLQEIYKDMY
T1 sequence (P19793 1-462 partner): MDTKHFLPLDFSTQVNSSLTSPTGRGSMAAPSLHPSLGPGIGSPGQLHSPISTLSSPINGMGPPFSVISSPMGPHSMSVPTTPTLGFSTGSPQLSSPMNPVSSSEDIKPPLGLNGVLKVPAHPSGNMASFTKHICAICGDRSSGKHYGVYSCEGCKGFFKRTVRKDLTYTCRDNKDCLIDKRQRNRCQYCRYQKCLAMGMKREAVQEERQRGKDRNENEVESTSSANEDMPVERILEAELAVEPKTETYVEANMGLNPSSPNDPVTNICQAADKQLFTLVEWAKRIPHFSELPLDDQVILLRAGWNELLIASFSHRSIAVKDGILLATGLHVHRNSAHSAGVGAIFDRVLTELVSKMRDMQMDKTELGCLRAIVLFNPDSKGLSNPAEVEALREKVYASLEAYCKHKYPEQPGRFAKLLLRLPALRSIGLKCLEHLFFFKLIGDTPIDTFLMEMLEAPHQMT
The experiment in a line: PPARδ-RXRα heterodimer ligand activity, luciferase reporter in COS-1 transformant (Test Example 4). It counts as cell-based. The following applies: COS-1 transformant (hPPARδ, hRXRα, reporter), 36-48 hours, concentration for 50% of the maximum fold induction. How it is done: The transformant obtained in Reference Example 9a was suspended in DMEM medium (produced by Life Technologies, Inc., USA) containing 0.1% fatty acid-free bovine serum albumin (BSA) (produced by Wako Pure Chemical Industries, Ltd.), and inoculate to each well of a 96-well white plate (produced by Corning Costar Corporation, USA) by 80 μl at 1×10^4 cells/well. Then the test compound (20 μl) was added and cultured at 37° C. under 5% CO2 for 36-48 hours. After removing the medium from the 96-well white plate, 40 μl of PIKKAGENE LT 7.5 (produced by Wako Pure Chemical Industries, Ltd.) diluted twice with HBSS (HANKS' BALANCED SALT SOLUTION)(produced by BIO WHITTAKER Inc., USA), was added. After stirring, the luciferase activity was determined using 1420 ARVO Multilabel Counter (produced by PerkinElmer Inc., USA).
A fold induction was calculated based on the luciferase activity of each test compound by taking the luciferase activity in the non-treatment group as 1. The values of the test compound concentration and the fold induction were analyzed using PRISM (produced by GraphPad Software Inc. USA) to calculate the EC50 values, the effective concentration of a test compound for 50% of the maximum fold induction.
COS-1 cells were inoculated to a 150 cm^2 cell culture flask (produced by Corning Costar Corporation, USA) at the density of 5×10^6 cells/50 ml, and cultured at 37° C. under 5% CO2 conditions for 24 hours. Subsequently, a DNA was introduced into the cell under the condition shown below using Lipofectamine (produced by Invitrogen, USA).
First, Lipofectamine (125 μl), PLUS Reagent (100 μl, produced by Invitrogen, USA), plasmid pMCMVneo-hPPARδ (2.5 μg) obtained in Reference Example 3a, plasmid pMCMVneo-hRXRα (2.5 μg) obtained in Reference Example 4a and reporter plasmid pGL3-4ERPP-TK neo (5 μg) obtained in Reference Example 5a, and pRL-tk (5 μg, produced by Promega, USA) were mixed with opti-MEM (5 ml, produced by Invitrogen, USA) to give a transfection mixture.
Then, the above-mentioned transfection mixture and opti-MEM (20 ml) were added to COS-1 cells washed with opti-MEM, and the cells were cultured at 37° C. under 5% CO2 conditions for 3 hours. DMEM medium (25 ml, produced by Life Technologies, Inc., USA) containing 0.1% fatty acid-free bovine serum albumin (BSA) (produced by Wako Pure Chemical Industries, Ltd.) was added to the obtained COS-1 cells, and the cells were cultured at 37° C. under 5% CO2 conditions for 18-24 hours to give a transformant.
Background: Reporter assays use an easily measured gene product as a stand-in for the process of interest.

In the case of `CCOc1nn(-c2ccc(C(F)(F)F)cn2)cc1CCOc1cc(CCC(=O)O)n(-c2ccccc2)n1` [Example 56, 3-[3-(2-{3-ethoxy-1-[5-(trifluoromethyl)-2-pyridinyl]-1H-pyrazol-4-yl}ethoxy)-1-phenyl-1H-pyrazol-5-yl]propanoic acid], the melting point was in the range of 155 to 156 °C. The same molecule displayed an EC50 at PPARδ-RXRα heterodimer of 2.8 nM.

In turn, `CCCc1nn(-c2ccc(C(F)(F)F)cn2)cc1CCCCOc1cccc(CC(=O)O)c1` [Example 59, [3-(4-{3-propyl-1-[5-(trifluoromethyl)-2-pyridinyl]-1H-pyrazol-4-yl}butoxy)phenyl]acetic acid] came in with a melting point of 96 to 97 °C. It took 9.7 nM to reach a half-maximal effect at PPARδ-RXRα heterodimer (EC50).

Regarding `CCOc1nn(-c2ccc(C(F)(F)F)cn2)cc1CCOc1cccc(CC(=O)O)c1` [Example 62, [3-(2-{3-ethoxy-1-[5-(trifluoromethyl)-2-pyridinyl]-1H-pyrazol-4-yl}ethoxy)phenyl]acetic acid], the melting point lay in the range of 128 to 130 °C. Besides, the EC50 on PPARδ-RXRα heterodimer came out at 0.81 nM.

For the molecule `CCCc1nn(-c2ccc(C(F)(F)F)cn2)cc1CCCCOc1cc(CC(=O)O)ccc1OC` [Example 63, [4-methoxy-3-(4-{3-propyl-1-[5-(trifluoromethyl)-2-pyridinyl]-1H-pyrazol-4-yl}butoxy)phenyl]acetic acid], the melting point fell in the range of 147 to 148 °C. Besides, the EC50 at PPARδ-RXRα heterodimer was determined as 9.5 nM.

Molecule `CCCc1nn(-c2ccc(C(F)(F)F)cn2)cc1CCCOc1ccc(CCC(=O)O)c(C)c1` [Example 65, 3-[2-methyl-4-(3-{3-propyl-1-[5-(trifluoromethyl)-2-pyridinyl]-1H-pyrazol-4-yl}propoxy)phenyl]propanoic acid] displayed a melting point of 124 to 126 °C. For the same molecule, the midpoint of the response at PPARδ-RXRα heterodimer, the EC50, lay at 1.8 nM.

In the case of `CCOc1nn(-c2ccc(C(F)(F)F)cn2)cc1CCOc1ccc(CCC(=O)O)c(OC)c1` [Example 75, 3-[4-(2-{3-ethoxy-1-[5-(trifluoromethyl)-2-pyridinyl]-1H-pyrazol-4-yl}ethoxy)-2-methoxyphenyl]propanoic acid], the melting point was in the range of 147 to 148 °C. Further, the midpoint of the response on PPARδ-RXRα heterodimer, the EC50, lay at 3.8 nM.

Molecule `CCOc1nn(-c2ccc(C(F)(F)F)cn2)cc1CCOc1ccc(CCC(=O)O)c(C)c1` [Example 76, 3-[4-(2-{3-ethoxy-1-[5-(trifluoromethyl)-2-pyridinyl]-1H-pyrazol-4-yl}ethoxy)-2-methylphenyl]propanoic acid] registered a melting point of 117 to 119 °C. Also, the concentration for a half-maximal effect (EC50) on PPARδ-RXRα heterodimer was 1.9 nM.

In turn, `CCOc1nn(-c2ccc(C(F)(F)F)cn2)cc1CCCOc1ccc(CCC(=O)O)c(OC)c1` [Example 85, 3-[4-(3-{3-ethoxy-1-[5-(trifluoromethyl)-2-pyridyl]-1H-pyrazol-4-yl}propoxy)-2-methoxyphenyl]propionic acid] displayed a melting point of 120 to 121 °C. The molecule also had an EC50 on PPARδ-RXRα heterodimer of 6 nM.

The molecule `CCCc1nn(-c2ccc(C(F)(F)F)cn2)cc1CCCOc1ccc(CCC(=O)O)c(OC)c1` [Example 86, 3-[2-methoxy-4-(3-{3-propyl-1-[5-(trifluoromethyl)-2-pyridyl]-1H-pyrazol-4-yl}propoxy)phenyl]propionic acid] had a melting point of 114 to 115 °C. This molecule had an EC50 on PPARδ-RXRα heterodimer of 1.5 nM.

`CCCc1nn(-c2ccc(C(F)(F)F)cn2)cc1CCCOc1cc(CC(=O)O)ccc1F` [Example 91, [4-fluoro-3-(3-{3-propyl-1-[5-(trifluoromethyl)-2-pyridyl]-1H-pyrazol-4-yl}propoxy)phenyl]acetic acid]: the melting point fell in the range of 88 to 89 °C. On PPARδ-RXRα heterodimer, this molecule yielded an EC50 of 6 nM.

In the case of `CCCc1nn(-c2ccc(C(F)(F)F)cn2)cc1CCCOc1cc(CCC(=O)O)cc(OC)c1` [Example 92, 3-[3-methoxy-5-(3-{3-propyl-1-[5-(trifluoromethyl)-2-pyridyl]-1H-pyrazol-4-yl}propoxy)phenyl]propionic acid], the melting point was in the range of 98 to 99 °C. Further, the EC50 at PPARδ-RXRα heterodimer was 1.9 nM.

`CCCc1nn(-c2ccc(C(F)(F)F)cn2)cc1CCCOc1ccc(CC(=O)O)c(C)c1` [Example 94, [2-methyl-4-(3-{3-propyl-1-[5-(trifluoromethyl)-2-pyridyl]-1H-pyrazol-4-yl}propoxy)phenyl]acetic acid] yielded a melting point of 134 to 135 °C. Moreover, at PPARδ-RXRα heterodimer, the EC50 was 4 nM.

Regarding `CCCc1nn(-c2ccc(C(F)(F)F)cn2)cc1CCCOc1ccc(CCC(=O)O)cc1OC` [Example 96, 3-[3-methoxy-4-(3-{3-propyl-1-[5-(trifluoromethyl)-2-pyridyl]-1H-pyrazol-4-yl}propoxy)phenyl]propionic acid], the melting point was 126 to 127 °C. In addition, the response at PPARδ-RXRα heterodimer was half-maximal at 1.7 nM (EC50).

The molecule `CCOc1cc(OCCCc2cn(-c3ccc(C(F)(F)F)cn3)nc2-c2ccccc2)ccc1CCC(=O)O` [Example 99, 3-[2-ethoxy-4-(3-{3-phenyl-1-[5-(trifluoromethyl)-2-pyridinyl]-1H-pyrazol-4-yl}propoxy)phenyl]propanoic acid] displayed a melting point of 135 to 136 °C. The midpoint of the response on PPARδ-RXRα heterodimer, the EC50, lay at 0.55 nM.

For `CCOc1nn(-c2ccc(C(F)(F)F)cc2)cc1CCCOc1cc(CCC(=O)O)n(-c2ccccc2)n1` [Example 111, 3-[3-(3-{3-ethoxy-1-[4-(trifluoromethyl)phenyl]-1H-pyrazol-4-yl}propoxy)-1-phenyl-1H-pyrazol-5-yl]propanoic acid], the melting point is 126 to 127 °C. This molecule also registered an EC50 at PPARδ-RXRα heterodimer of 6.1 nM.

`CCOc1nn(-c2ccc(C(F)(F)F)cc2)cc1CCCOc1cccc(CC(=O)O)c1` [Example 113, [3-(3-{3-ethoxy-1-[4-(trifluoromethyl)phenyl]-1H-pyrazol-4-yl}propoxy)phenyl]acetic acid] returned a melting point of 108 to 109 °C. Further, the response at PPARδ-RXRα heterodimer was half-maximal at 4.8 nM (EC50).

`CCCOc1cc(OCCCc2cn(-c3ccc(C(F)(F)F)cn3)nc2OCC)ccc1CCC(=O)O` [Example 117, 3-[4-(3-{3-ethoxy-1-[5-(trifluoromethyl)-2-pyridinyl]-1H-pyrazol-4-yl}propoxy)-2-propoxyphenyl]propanoic acid] registered a melting point of 126 to 127 °C. Also, on PPARδ-RXRα heterodimer, the EC50 amounted to 1.6 nM.

The molecule `CCCCOc1cc(OCCCc2cn(-c3ccc(C(F)(F)F)cn3)nc2OCC)ccc1CCC(=O)O` [Example 118, 3-[2-butoxy-4-{3-(3-ethoxy-1-[5-(trifluoromethyl)-2-pyridinyl]-1H-pyrazol-4-yl}propoxy)phenyl]propanoic acid] showed a melting point of 123 to 124 °C. At PPARδ-RXRα heterodimer, the EC50 amounted to 7.2 nM.

For `COc1cc(OCc2cn(-c3ccc(C(F)(F)F)cn3)nc2C)ccc1CCC(=O)O` [Example 122, 3-[2-methoxy-4-({3-methyl-1-[5-(trifluoromethyl)-2-pyridyl]-1H-pyrazol-4-yl}methoxy)phenyl]propionic acid], the melting point was in the range of 158 to 159 °C. At PPARδ-RXRα heterodimer, this molecule registered an EC50 of 4.9 nM.

A word on the EC50: it is the concentration at which the effect is half-maximal. High values mean a need for much substance, low ones an effect from little substance. The term melting point denotes the temperature, or range, at which the solid turns liquid.
